Assay results published in ChEMBL document CHEMBL1201862, “PubChem BioAssay data set” (2004).
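Five concentrations, 48 hours, 96-well plates. At the GI50, growth is halved.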 Activity calls are given as the source filed them. No stated cut-off is given here; in the data, active = GI50 up to about 1.1 µM and inactive = higher.

How the values were obtained:
Experiment in all cases: DTP human tumour cell line panel, 48 h
[1] = test system: EKVX
[2] = test system: RXF 631
[3] = test system: SF-539
[4] = test system: RPMI-8226
[5] = test system: KM12
[6] = test system: SNB-75
[7] = test system: OVCAR-8
[8] = test system: SW-620
[9] = test system: A498
[10] = test system: UO-31
[11] = test system: OVCAR-4
[12] = test system: M19-MEL
[13] = test system: HOP-92
[14] = test system: IGROV-1
[15] = test system: Malme-3M
[16] = test system: CCRF-CEM
[17] = test system: SNB-19
[18] = test system: HCT-15
[19] = test system: NCI-H23
[20] = test system: OVCAR-3
[21] = test system: CAKI-1
[22] = test system: KM-20L2
[23] = test system: MOLT-4
[24] = test system: SK-OV-3
[25] = test system: LOX IMVI
[26] = test system: U-251
[27] = test system: A549
[28] = test system: SF-268
[29] = test system: SF-295
[30] = test system: M14
[31] = test system: HL-60
[32] = test system: HOP-18
[33] = test system: K562
[34] = test system: DMS-273
[35] = test system: LXFL 529
[36] = test system: SK-MEL-28
[37] = test system: NCI-H522
[38] = test system: SK-MEL-2
[39] = test system: SN12C
[40] = test system: OVCAR-5
[41] = test system: RXF 393
[42] = test system: HT-29
[43] = test system: UACC-257
[44] = test system: TK-10
[45] = test system: COLO 205
[46] = test system: DLD-1
[47] = test system: 786-0
[48] = test system: SK-MEL-5
[49] = test system: ACHN
[50] = test system: UACC-62
[51] = test system: NCI-H460
[52] = test system: HCC 2998
[53] = test system: XF498
[54] = test system: NCI-H226
[55] = test system: Hs-578T
[56] = test system: MDA-MB-435
[57] = test system: MCF7
[58] = test system: T47D
[59] = test system: MDA-N
[60] = test system: NCI/ADR-RES
[61] = test system: PC-3
[62] = test system: MDA-MB-231
[63] = test system: SR
[64] = test system: DU-145
[65] = test system: HOP-62
[66] = test system: HCT-116
[67] = test system: SNB-78
[68] = test system: BT-549

CCCCCCCCCCOC(=O)NCCC
GI50 [1]: 25.9 µM (inactive)
GI50 [2]: 27.6 µM (inactive)
GI50 [3]: 59.7 µM (inactive)
GI50 [4]: 17.9 µM (inactive)
GI50 [5]: 36.1 µM (inactive)
GI50 [6]: 49.2 µM (inactive)
GI50 [7]: 30.5 µM (inactive)
GI50 [8]: 48.6 µM (inactive)
GI50 [9]: 31.7 µM (inactive)
GI50 [10]: 16.2 µM (inactive)
GI50 [11]: 21.6 µM (inactive)
GI50 [12]: 34.5 µM (inactive)
GI50 [13]: 11.6 µM (inactive)
GI50 [14]: 64.1 µM (inactive)
GI50 [15]: 21.4 µM (inactive)
GI50 [16]: 18.5 µM (inactive)
GI50 [17]: 34.4 µM (inactive)
GI50 [18]: 21 µM
GI50 [19]: 33.1 µM (inactive)
GI50 [20]: 33.3 µM (inactive)
GI50 [21]: 35.5 µM (inactive)
GI50 [22]: 22.8 µM (inactive)
GI50 [23]: 17.2 µM (inactive)
GI50 [24]: 54.8 µM (inactive)
GI50 [25]: 18.2 µM (inactive)
GI50 [26]: 24.9 µM (inactive)
GI50 [27]: 36.6 µM (inactive)
GI50 [28]: 29.1 µM (inactive)
GI50 [29]: 38.5 µM (inactive)
GI50 [30]: 29.4 µM (inactive)
GI50 [31]: 13.9 µM (inactive)
GI50 [32]: 26.7 µM (inactive)
GI50 [33]: 29.9 µM (inactive)
GI50 [34]: 20.6 µM (inactive)
GI50 [35]: 38 µM (inactive)
GI50 [36]: 28.8 µM (inactive)
GI50 [37]: 18.7 µM (inactive)
GI50 [38]: 16.7 µM (inactive)
GI50 [39]: 28 µM (inactive)
GI50 [40]: 24.4 µM (inactive)
GI50 [41]: 15.9 µM (inactive)
GI50 [42]: 21.4 µM (inactive)
GI50 [43]: 30.2 µM (inactive)
GI50 [44]: 34.5 µM (inactive)
GI50 [45]: 40.5 µM (inactive)
GI50 [46]: 34.8 µM (inactive)
GI50 [47]: 28.1 µM (inactive)
GI50 [48]: 23.9 µM (inactive)
GI50 [49]: 28.8 µM (inactive)
GI50 [50]: 38.5 µM (inactive)
GI50 [51]: 25.8 µM (inactive)
GI50 [52]: 18.2 µM (inactive)
GI50 [53]: 18.2 µM (inactive)

C=C1C(=O)C23CC1CCC2C12CO[C@@]3(O)[C@@H](O)C1C(C)(C)C=CC2=O (stereo partly specified)
GI50 [1]: 5.26 µM (inactive)
GI50 [2]: 1.03 µM (active)
GI50 [3]: 0.861 µM (active)
GI50 [4]: 0.75 µM (active)
GI50 [54]: 6.44 µM (inactive)
GI50 [5]: 14.6 µM (inactive)
GI50 [55]: 31.6 µM (inactive)
GI50 [6]: 6.03 µM (inactive)
GI50 [7]: 0.16 µM (active)
GI50 [56]: 3.78 µM (inactive)
GI50 [57]: 2.44 µM (inactive)
GI50 [58]: 5.38 µM (inactive)
GI50 [8]: 2.93 µM (inactive)
GI50 [9]: > 10 µM (inactive)
GI50 [10]: 1.73 µM (inactive)
GI50 [59]: 2.98 µM (inactive)
GI50 [12]: 0.824 µM (active)
GI50 [13]: 0.785 µM (active)
GI50 [14]: 3.94 µM (inactive)
GI50 [15]: 0.755 µM (active)
GI50 [60]: 9.31 µM (inactive)
GI50 [16]: 0.313 µM (active)
GI50 [61]: 2.74 µM (inactive)
GI50 [17]: 1.41 µM (inactive)
GI50 [62]: 3.85 µM (inactive)
GI50 [18]: 0.838 µM
GI50 [63]: 0.186 µM (active)
GI50 [19]: 0.752 µM (active)
GI50 [20]: 1.11 µM (active)
GI50 [21]: 2.44 µM (inactive)
GI50 [22]: 1.44 µM (inactive)
GI50 [23]: 0.281 µM (active)
GI50 [24]: 7.53 µM (inactive)
GI50 [25]: 3.63 µM (inactive)
GI50 [26]: 1.49 µM (inactive)
GI50 [27]: 2.03 µM (inactive)
GI50 [28]: 1.65 µM (inactive)
GI50 [29]: 1.48 µM (inactive)
GI50 [30]: 2.75 µM (inactive)
GI50 [31]: 0.143 µM (active)
GI50 [32]: 1.19 µM (inactive)
GI50 [33]: 1.53 µM (inactive)
GI50 [34]: 0.568 µM (active)
GI50 [64]: 23.4 µM (inactive)
GI50 [36]: 0.738 µM (active)
GI50 [37]: 1.24 µM (inactive)
GI50 [38]: 0.925 µM (active)
GI50 [39]: 1.15 µM (inactive)
GI50 [40]: 4.76 µM (inactive)
GI50 [41]: 0.728 µM (active)
GI50 [42]: 0.234 µM (active)
GI50 [43]: 0.684 µM (active)
GI50 [44]: 0.893 µM (active)
GI50 [45]: 0.714 µM (active)
GI50 [46]: 0.721 µM (active)
GI50 [47]: 0.653 µM (active)
GI50 [48]: 6.65 µM (inactive)
GI50 [65]: 7.41 µM (inactive)
GI50 [66]: 0.488 µM (active)
GI50 [49]: 0.774 µM (active)
GI50 [50]: 0.989 µM (active)
GI50 [51]: 0.713 µM (active)
GI50 [67]: 0.718 µM (active)
GI50 [52]: 1.15 µM (inactive)
GI50 [53]: 0.791 µM (active)

COc1ccc(-c2oc3cc(O)c(OC)c(O)c3c(=O)c2O)cc1 [BETULETOL]
GI50 [1]: 18.9 µM (inactive)
GI50 [2]: 21.5 µM (inactive)
GI50 [3]: 8.32 µM (inactive)
GI50 [4]: 6.1 µM (inactive)
GI50 [54]: 5.19 µM (inactive)
GI50 [5]: 12 µM (inactive)
GI50 [55]: 15.2 µM (inactive)
GI50 [6]: 10.4 µM (inactive)
GI50 [7]: 9.95 µM (inactive)
GI50 [56]: 17.9 µM (inactive)
GI50 [57]: 4.44 µM (inactive)
GI50 [58]: 9.75 µM (inactive)
GI50 [8]: 20.5 µM (inactive)
GI50 [9]: 7.11 µM (inactive)
GI50 [10]: 6.46 µM (inactive)
GI50 [59]: 13.7 µM (inactive)
GI50 [11]: 30.2 µM (inactive)
GI50 [12]: 38.8 µM (inactive)
GI50 [13]: 6.7 µM (inactive)
GI50 [14]: 15.1 µM (inactive)
GI50 [15]: 10.5 µM (inactive)
GI50 [60]: 6.73 µM (inactive)
GI50 [16]: 5.16 µM (inactive)
GI50 [61]: 9.55 µM (inactive)
GI50 [17]: 10.1 µM (inactive)
GI50 [62]: 12.9 µM (inactive)
GI50 [18]: 4.84 µM
GI50 [63]: 3.08 µM (inactive)
GI50 [68]: 8.36 µM (inactive)
GI50 [19]: 5.62 µM (inactive)
GI50 [20]: 9.38 µM (inactive)
GI50 [21]: 6.03 µM (inactive)
GI50 [22]: 39.7 µM (inactive)
GI50 [23]: 1.85 µM (inactive)
GI50 [24]: 6.22 µM (inactive)
GI50 [25]: 6.19 µM (inactive)
GI50 [26]: 4.47 µM (inactive)
GI50 [27]: 3.33 µM (inactive)
GI50 [28]: 8.61 µM (inactive)
GI50 [29]: 6.08 µM (inactive)
GI50 [30]: 17.8 µM (inactive)
GI50 [31]: 2.9 µM (inactive)
GI50 [32]: 67.3 µM (inactive)
GI50 [33]: 10.9 µM (inactive)
GI50 [34]: 9.68 µM (inactive)
GI50 [64]: 2.36 µM (inactive)
GI50 [35]: 20.1 µM (inactive)
GI50 [36]: 20.2 µM (inactive)
GI50 [37]: 10.2 µM (inactive)
GI50 [38]: > 51.8 µM (inactive)
GI50 [39]: 5.6 µM (inactive)
GI50 [40]: 26.9 µM (inactive)
GI50 [41]: 12 µM (inactive)
GI50 [42]: 17.1 µM (inactive)
GI50 [43]: 54 µM (inactive)
GI50 [44]: 19.5 µM (inactive)
GI50 [45]: 23.7 µM (inactive)
GI50 [46]: 13.4 µM (inactive)
GI50 [47]: 6.08 µM (inactive)
GI50 [48]: 6.14 µM (inactive)
GI50 [65]: 4.73 µM (inactive)
GI50 [66]: 8.75 µM (inactive)
GI50 [49]: 2.77 µM (inactive)
GI50 [50]: 10.3 µM (inactive)
GI50 [51]: 1.74 µM (inactive)
GI50 [67]: 81.3 µM (inactive)
GI50 [52]: 19.3 µM (inactive)
GI50 [53]: 24.9 µM (inactive)
